One may read the GI50 as the concentration at which growth is held to half of that of the control. In general, TGI refers to the concentration giving total growth inhibition. High values mean less potent growth arrest, low ones more potent growth arrest.

Among the test systems are NCI-H226 lung; SR leukemia; DU-145 prostate; SK-MEL-2 melanoma; A549 NSCLC; SF-295 CNS; MCF7 breast; SF-268 CNS; NCI-H23 lung; NCI-H522 lung.
What all share (assay): DTP human tumour cell line panel, 48 h

Where “and” joins values, the source holds several entries; their conditions need not be identical. Equal values may be shown once.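 Five concentrations, 48 hours, 96-well plates. Here, GI50 denotes the concentration required for 50% inhibition of growth. The concentration for full growth arrest is given as TGI.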 A value given as a limit tells only on which side of the number the result lay.

On to `Nc1c2ccccc2nc2ccccc12`, for which the GI50 in the test with NCI-H226 lung was 1240 nM and 2810 nM; with SR leukemia it was 855 nM and 2780 nM; in the test with DU-145 prostate it was 2020 nM and 2570 nM; with SK-MEL-2 melanoma it was 1740 nM and 3870 nM; with A549 NSCLC, 1520 nM and 2870 nM; in the test with SF-295 CNS, 1610 nM and 3080 nM. Further, the GI50 in the test on MCF7 breast is 1620 nM and 3020 nM; in the test with SF-268 CNS, 1630 nM and 3470 nM; in the test with NCI-H23 lung, 1800 nM and 3180 nM; with NCI-H522 lung it was 1150 nM and 3030 nM. For the same compound, the TGI in the test on NCI-H226 lung was 3210 nM and 8240 nM; with SR leukemia, 6840 nM and 16600 nM; in the test on DU-145 prostate, 5510 nM and 6860 nM; with SK-MEL-2 melanoma, 3410 nM and 11400 nM; in the test with A549 NSCLC, 3940 nM and 8810 nM; in the test on SF-295 CNS it was 9520 nM and 17500 nM. Besides, the TGI in the test on MCF7 breast was 9140 nM and 10800 nM; in the test with SF-268 CNS, 4450 nM and 19700 nM; with NCI-H23 lung, 5490 nM and 15400 nM; with NCI-H522 lung, 2630 nM and 10100 nM.

As to `C=C1C(=O)O[C@H]2[C@H]1CC/C(COC(=O)NCc1ccc(Cn3c(=O)sn(CCCI)c3=O)cc1)=C\CC[C@@]1(C)O[C@@H]21`, the GI50 in the test with NCI-H226 lung is 14100 nM; in the test with DU-145 prostate, 1740 nM; in the test on SK-MEL-2 melanoma, 2420 nM; in the test on A549 NSCLC, 11200 nM; in the test on SF-295 CNS, 14400 nM; in the test with MCF7 breast, 1410 nM. The GI50 in the test with SF-268 CNS was 2540 nM; with NCI-H23 lung, 2110 nM; in the test with NCI-H522 lung it was 1070 nM. Moreover, the TGI was found to be 37700 nM in the test on NCI-H226 lung; 3160 nM in the test on DU-145 prostate; 7190 nM with SK-MEL-2 melanoma; 25300 nM with A549 NSCLC; 30800 nM with SF-295 CNS; 3240 nM in the test with MCF7 breast. Also, the values for the TGI in the test with SF-268 CNS, with NCI-H23 lung and in the test on NCI-H522 lung were 7410 nM, 4910 nM and 2390 nM, respectively.

For the compound `Nc1nc(N)c2nc(CNc3ccc(C(=O)NC(CCC(=O)O)C(=O)O)cc3)cnc2n1` (stereo unspecified), the TGI in the test on NCI-H226 lung, in the test with SR leukemia, with DU-145 prostate, in the test on SK-MEL-2 melanoma, in the test on A549 NSCLC and in the test with SF-295 CNS was over 100000 nM throughout. Besides, the TGI in the test with MCF7 breast, with SF-268 CNS, in the test with NCI-H23 lung and with NCI-H522 lung was over 100000 nM in each case. Further, the GI50 in the test with SR leukemia was under 10 nM; in the test with DU-145 prostate, under 10 nM; with SK-MEL-2 melanoma, over 100000 nM; in the test on A549 NSCLC, 32 nM and < 10 nM; with SF-295 CNS, 32.7 nM and < 13.4 nM; in the test on MCF7 breast it was 10.1 nM and < 10 nM. Further, the GI50 was 20 nM and < 10 nM in the test on SF-268 CNS; 60.4 nM and 21.3 nM in the test on NCI-H23 lung; 44.6 nM and 81.5 nM with NCI-H522 lung.

`OC1(c2ccccc2)c2ccccc2N(c2ccccc2)c2ccc(Cl)cc21` (stereo unspecified): the GI50 is 412 nM in the test on DU-145 prostate; 240 nM in the test on SK-MEL-2 melanoma; 332 nM in the test with A549 NSCLC; 575 nM in the test with SF-295 CNS; 299 nM in the test on MCF7 breast; 311 nM with SF-268 CNS. Further, the GI50 with NCI-H23 lung is 320 nM; with NCI-H522 lung it was 161 nM. The TGI with DU-145 prostate was determined as 1390 nM; in the test with SK-MEL-2 melanoma it was 485 nM; with A549 NSCLC, 1300 nM; in the test on SF-295 CNS it was 2270 nM; in the test on MCF7 breast, 894 nM; in the test with SF-268 CNS it was 1140 nM. Further, the TGI in the test on NCI-H23 lung is 1380 nM; in the test with NCI-H522 lung, 433 nM.

Regarding `COc1ccc(-c2cc(-c3ccc(Cl)cc3)c(C#N)c(=O)n2CCCCCC(=O)Nc2ccccc2N)cc1`, the GI50 is 4580 nM with NCI-H226 lung; 2020 nM in the test with SR leukemia; 10600 nM in the test with DU-145 prostate; 4680 nM with SK-MEL-2 melanoma; 4060 nM in the test on A549 NSCLC; 3250 nM in the test on MCF7 breast. The GI50 with SF-268 CNS was 14900 nM; in the test on NCI-H23 lung, 6040 nM; in the test with NCI-H522 lung, 4430 nM. Also, the TGI was 78900 nM in the test with NCI-H226 lung; over 100000 nM in the test on SR leukemia; over 100000 nM in the test with DU-145 prostate; 33100 nM with SK-MEL-2 melanoma; over 100000 nM with A549 NSCLC; over 100000 nM in the test with MCF7 breast. The TGI with SF-268 CNS was over 100000 nM; with NCI-H23 lung, 27300 nM; in the test on NCI-H522 lung, over 100000 nM.

In the case of `O=C(CNC(=O)c1cccc2ccccc12)Nc1ccccc1Oc1ccc(O)cc1`, the GI50 in the test on NCI-H226 lung was 4740 nM; with SR leukemia, 459 nM; with DU-145 prostate it was 1150 nM; in the test with A549 NSCLC, 1490 nM; with SF-295 CNS it was 620 nM; in the test on MCF7 breast, 847 nM. Moreover, the GI50 with SF-268 CNS is 3310 nM; with NCI-H23 lung it was 2160 nM; with NCI-H522 lung, 852 nM. Moreover, the TGI in the test on NCI-H226 lung, in the test with SR leukemia, in the test on DU-145 prostate, in the test on A549 NSCLC, in the test on SF-295 CNS and with MCF7 breast was over 25000 nM in each case. Besides, the concentration for total growth inhibition (TGI) in the test on SF-268 CNS, in the test on NCI-H23 lung and in the test on NCI-H522 lung was over 25000 nM in each case.

For the compound `CC(=O)O[C@@H]1[C@H]2O[C@H]2[C@H]2O[C@@]2(COC(=O)c2ccccc2)[C@H]1OC(C)=O`, the TGI in the test on NCI-H226 lung, in the test on DU-145 prostate, with SK-MEL-2 melanoma, in the test with A549 NSCLC, in the test with SF-295 CNS and with MCF7 breast was over 100000 nM throughout. Further, the TGI in the test with SF-268 CNS, with NCI-H23 lung and in the test on NCI-H522 lung was over 100000 nM each time.

Consider `COc1cnc2c(c1)C(=O)c1c-2n(CCCN2CCNCC2)c(=O)c2cc(F)ccc12`, for which the GI50 with NCI-H226 lung was 150 nM; with SR leukemia, 50 nM; with DU-145 prostate it was 62.3 nM; in the test on SK-MEL-2 melanoma it was 1710 nM; with A549 NSCLC, 16.4 nM; in the test on MCF7 breast it was 34.5 nM. Also, the GI50 is 282 nM with SF-268 CNS, 233 nM in the test on NCI-H23 lung and 118 nM in the test with NCI-H522 lung. Also, the TGI with NCI-H226 lung was determined as 507 nM; with SR leukemia it was 863 nM; in the test with DU-145 prostate it was 1150 nM; in the test on SK-MEL-2 melanoma, 3370 nM; in the test with A549 NSCLC, 219 nM; in the test with MCF7 breast, 1410 nM. The TGI in the test on SF-268 CNS worked out at 1860 nM; in the test on NCI-H23 lung it was 1470 nM; in the test with NCI-H522 lung, 1350 nM.

The record behind these values is PubChem BioAssay (NCI).
